This is an account of results in US9498460B1, “Halogenated tetracyclic compounds” (KING SAUD UNIVERSITY, priority 2016, dated 2016).

Converted amounts (≈) assume the structure as drawn.

Series [1] concerns colorectal carcinoma HTC-116 cell line. The series is described as follows: MTT growth inhibition, HTC-116 (HCT 116). Type of series: cell-based. To be noted: for IC50: Homo sapiens, HCT-116, MTT test, 96-well plate, serial dilution, spread in brackets; for growth inhibition of third cell line (HCT): result in words. As to the method:
(§1) Growth inhibitions were measured in 96-well plates. Aliquots of 120 μL of the suspended cells (50,000 mL^−1) were given to 60 μL of a serial dilution of the inhibitor (S). After 5 days of incubations, growths were determined the MTT assay (MTT=3-(4,5-dimethylthiazol-2-yl)-2,5-diphenyltetrazolium bromide). Briefly, 20 μl MTT (5 mg/mL in PBS) were added to each well, and the plates were incubated for 2 h at 37° C., and 5% CO2-atmosphere in the cell incubator. The supernatants were then discarded and 200 μl of isopropanol/HCl were added to each well and mixed to dissolve the formazan crystals. The absorbance was then read at 550 nm using a microplate reader (Thermo Scientific, USA). The viability of the cells was calculated by dividing the absorbance average of the treated cells by the absorbance average of the control cells multiply 100%. […] The activities of the cells were plotted against the concentration of the drugs, and the IC50 values were calculated from the regression curve.
The cancer cell lines were incubated with serial dilution of each compound (from 313 pg ML^−1 to 5 mg ML^−1) in a 96-well plate for 4 days, and then tested for growth inhibition by MTT-Test. […] Replacing the formyl groups of the two compounds with amino groups (Sub. 6 and Sub. 7) caused remarkable decreasing of cells sensitivities, and accordingly increasing of IC50 values of the two derivatives as shown in table 2. […] Moreover, the sensitivities of the treated cancer cells to 4 and 5 were 6 times higher in case of the […] cell line A459, and even 40 times higher in case of hepatocyte carcinoma cell line HepG2.

Series [2] has as its system lung carcinoma cell line A549. As to the kind of experiment: MTT growth inhibition, A549. Type of series: cell-based. The following applies: for IC50: Homo sapiens, A549, MTT test, 96-well plate, serial dilution, spread in brackets; for sensitivity of treated cancer cells, times higher: cell line printed as A459, comparator not stated. As to the method: as §1
(§2) The cancer cell lines were incubated with serial dilution of each compound (from 313 pg ML^−1 to 5 mg ML^−1) in a 96-well plate for 4 days, and then tested for growth inhibition by MTT-Test.

In series [3] the test system is hepatocellular carcinoma HepG2 cell line. As to the kind of experiment: MTT growth inhibition, HepG2. It counts as cell-based. To be noted: for IC50: Homo sapiens, MTT test, 96-well plate, serial dilution, spread in brackets; for sensitivity of treated cancer cells, times higher: comparator not stated. As to the method:
as §1, §2

Series [4] relates to Burkitts Lymphoma (BL) cell lines DG-75. To be noted: does not involve caspases, DNA fragmentation or PARP cleavage; cited from earlier work.

`O=CC1CC2c3cccc(Cl)c3C1c1c(Cl)cccc12` (stereo not shown) [Compound 4, 4,5-dichloro-9,10-dihydro-9,10-ethanoanthracene-11-carbaldehyde]: in series [1], the IC50 worked out at 0.4 µg/mL (≈ 1.32 µM) and the “growth inhibition of third cell line (HCT)” value is given as “able to inhibit the growth”. Besides, in series [2], the midpoint of inhibition, the IC50, lay at 1.1 µg/mL (≈ 3.63 µM) and the “sensitivity of treated cancer cells, times higher” value (“sensitivity” below) was 6 times. Besides, in series [3], the IC50 was 0.12 µg/mL (≈ 0.396 µM) and the “sensitivity” value is on record as 40 times.

With `O=CC1CC2c3c(Cl)cccc3C1c1cccc(Cl)c12` (stereo not shown) [Compound 5, 1,8-dichloro-9,10-dihydro-9,10-ethanoanthracene-11-carbaldehyde], in series [1], the midpoint of inhibition, the IC50, lay at 0.7 µg/mL (≈ 2.31 µM) and the “growth inhibition of third cell line (HCT)” value is listed as “able to inhibit the growth”. In addition, in series [2], half-maximal inhibition (IC50) was put at 3.71 µg/mL (≈ 12.2 µM) and the “sensitivity” value was found to be 6 times. Also, in series [3], the IC50 came out at 0.65 µg/mL (≈ 2.14 µM) and the “sensitivity” value is reported as 40 times.

On to `CNCC1CC2c3cccc(Cl)c3C1c1c(Cl)cccc12` (stereo not shown) [Compound 6, 1-(4,5-dichloro-9,10-dihydro-9,10-ethanoanthracen-11-yl)-N-methylmethanamine], for which the melting point stood at 290 °C. This compound also yielded an IC50 in series [2] of 25.5 µg/mL (≈ 80.1 µM). This compound also displayed a half-maximal inhibitory concentration (IC50) in series [3] of 12.7 µg/mL (≈ 39.8 µM).

For the compound `CNCC1CC2c3c(Cl)cccc3C1c1cccc(Cl)c12` (stereo not shown) [Compound 7, 1-(1,8-dichloro-9,10-dihydro-9,10-ethanoanthracen-11-yl)-N-methylmethanamine], the melting point is 310 °C. Moreover, the IC50 in series [2] was found to be 18.9 µg/mL (≈ 59.4 µM). For the same compound, the IC50 in series [3] turned out to be 13.8 µg/mL (≈ 43.4 µM).

For `CNCCCC12CCC(c3ccccc31)c1ccccc12` [Maprotiline, 9,10-dihydro-N-methyl-9,10-ethanoanthracene-9-propanamine], the “in vitro antiproliferative activity against DG-75” value in series [4] is listed as “antiproliferative agent”.
